Tests used:
Format in all cases: cell-based, murine
iNOS = iNOS protein immunoblot, IFN-γ-stimulated N9 microglia; conditions: N9 cells, IFN-γ 200 u ml, 24 h, tranilast 300 μM
Protocol: Tranilast was a generous gift of Kissei Pharmaceuticals (Nagano, Japan). Murine recombinant IFN-γ was purchased from Boehringer (Mannheim, Germany). Dexamethasone (DEX) was obtained from Sigma (Deisenhofen, Germany). N9 murine microglial cells were a kind gift from P. Ricciardi-Castagnoli (Milano, Italy) (Righi, M., Mori, L., De Libero, G., Sironi, M., Biondi, A., Mantovani, A., Donini, S. D. and Ricciardi-Castagnoli, P. Eur J Immunol 19(8):1443-1448, 1989). The cells were cultured in Dulbecco's modified Eagle's medium (DMEM) supplemented with 10% foetal calf serum (FCS), 2 mM glutamine and penicillin ([…])/streptomycin (100 μg ml), and maintained at 37° C. in an atmosphere of 5% CO2. Viability was assessed by crystal violet staining.
For the preparation of whole cell lysates, the cells were rinsed in phosphate-buffered saline (PBS), harvested, centrifuged at 1200×g, lysed in 0.1 M TRIS-HCl (pH 7.2) containing 0.1% NP40, 0.1 mM EDTA and 5 μg ml PMSF for 40 min on ice, and centrifuged at 10,000×g for 10 min. Protein concentration was determined using Biorad reagents with photometric analysis. Proteins (20 μg lane) were separated by 10-12% SDS-PAGE and electroblotted on nitrocellulose. qual protein loading was controlled by Ponceau S staining. […]

iNOS mRNA = iNOS mRNA Northern blot, LPS-stimulated N9 microglia; conditions: N9 cells, LPS 10 μg/mL, TNL 300 μM pretreatment 1 hr
Excerpt: (§1) TNL was a generous gift of Kissei Pharmaceuticals, LPC (Escherichia coli, 0127:BS), phorbol 12-myristate 13-acetate (PMA) and dexamethasone (DEX) were obtained from Sigma, BAY 11-7082 (BAY), NF-κB SN50 inhibitory peptide (SN50), GF 109203X (GFX) and rottlerin (ROT) were purchased from Biomol. PD098059 (PD) was obtained from Calbiochem. Purified murine interferon-γ (IFN-γ) was purchased from Roche Diagnostics. N9 murine microglial cells were a kind gift from P. Ricciardi-Castagnoli (Righi, M. et al. 1989 supra). Cells were cultured in Dulbecco's modified Eagle's medium (DMEM) supplemented with 10% fetal calf serum (FCS), 2 mM glutamine, penicillin (100 unit/mL) and streptomycin (100 μg/mL) and maintained at 37° in an atmosphere of 5% CO2. Viability was assessed by crystal violet staining.
RNA was isolated using the RNeasy™ kit (Qiagen). Total RNA (10 μg) was separated on 1.2% agarose gels and blotted onto nylon membranes (Amersham). The filters were hybridized according to standard procedures with a ^32P-labeled murine cDNA probe for iNOS. For the generation of the iNOS probe, N9 cells were stimulated with IFN-γ (200 unit/mL) for 24 hr. […]

ERK-2 = assay: phospho-ERK-1/2 immunoblot, LPS-stimulated N9 microglia: ERK-2; conditions: N9 cells, LPS 10 μg/mL 10 min
Excerpt: as §1
(§2) For the preparation of whole cell lysates, the cells were lysed in 0.1 M Tris-HCl (pH 7.2) containing 0.1% NP40, 0.1 mM EDTA and 5 μg/mL phenylmethylsulphonyl fluoride. Twenty micrograms protein was separated by 10-12% SDS-PAGE and electroblotted on nitrocellulose membrane. Equal loading was controlled by Ponceau S staining. […]

ERK-1 = assay: phospho-ERK-1/2 immunoblot, LPS-stimulated N9 microglia: ERK-1; conditions: N9 cells, LPS 10 μg/mL 10 min, TNL pre-incubation 1 hr
Excerpt: as §1, §2

PKCδ = PKCδ translocation by immunocytochemistry in N9 microglia; conditions: N9 cells, PMA 100 nM, TNL 300 μM
Protocol: Cells grown on glass coverslips were serum-starved for 16 hr, kept in Krebs Ringer HEPES buffer (125 mM NaCl, 5 mM KCl, 1.2 mM MgSO4, 2 mM CaCl2, 1.2 mM KH2PO4, 6 mM glucose, 25 mM HEPES, pH 7.4) for 1 hr and left untreated or treated with PMA (100 nM) without or with pre-incubation (1 hr) with TNL (300 μM). After fixation in ice-cold (−20′) methanol for 20 min, the cells were washed with PBS and incubated for 15 min with 0.1% NaBH4 and 0.1 M glycine in PBS to block autofluorescence. Nonspecific antibody binding was blocked for 45 min with PBG (PBS with 0.045% fish gelatin) containing 5% normal goat serum and 1% bovine serum albumin. Incubation with anti-PKCδ antibody was carried out for 24 hr at 4° after dilution in PBG containing 5% normal goat serum. After four washes with PBG, primary antibody binding was detected with an isotype-specific secondary antibody conjugated with Alexa™546 fluorescent dye. The coverslips were mounted in PermaFluor (Immunotech). Localization of the proteins was examined using confocal laser microscopy (Leica).

## COc1ccc(/C=C/C(=O)Nc2ccccc2C(=O)O)cc1OC [tranilast, 2-[[3-(3,4-dimethoxyphenyl)-1-oxo-2-propenyl]amino]benzoic acid]
iNOS
  IFN-γ-induced iNOS protein expression: greatly suppressed
iNOS mRNA; 4 and 8 hr
  LPS induction of iNOS mRNA: unaffected
iNOS mRNA; 16 hr
  LPS induction of iNOS mRNA: no further increase
ERK-2; 300 μM TNL
  reduction of phospho-ERK-2 (densitometry): 80%
ERK-2; TNL pre-incubation 1 hr, concentration series
  ERK-2 phosphorylation after LPS: concentration-dependent inhibition
ERK-1
  phospho-ERK-1 protein level after LPS: remained unchanged
PKCδ
  PMA-induced translocation of PKCδ from cytosol to nucleus: abolished

From US7531575B2, “Method of modulating cellular activity and agents useful for same” (Eberhard-Karls-Universität Tübingin, priority 2002, dated 2009)
